Laboratory results: patent EP4467535A1, “LACTAM PESTICIDAL COMPOUNDS” (priority 2023, dated 2024)

Legend:
Type in all cases: in vivo
[1] = tested on: Tobacco budworm (Heliothis virescens); assay: Action on Tobacco budworm (Heliothis virescens), 96-well microtiter plate insect diet test; settings: 120 h, egg and larval mortality visually assessed after 5 days, read-out: mortality in comparison with untreated controls
Protocol: Example B5: Action on Tobacco budworm (Heliothis virescens)
For evaluating control of tobacco budworm (Heliothis virescens) the test unit consisted of 96-well-microtiter plates containing an insect diet and 15-25 H. virescens eggs.
The compounds were formulated using a solution containing 75% v/v water and 25% v/v DMSO. Different concentrations of formulated compounds were sprayed onto the insect diet at 10 µl, using a custom-built micro atomizer, at two replications.
After application, microtiter plates were incubated at about 28 + 1°C and about 80 + 5 % relative humidity for 5 days. Egg and larval mortality were then visually assessed.

[2] = tested on: Diamond back moth (Plutella xylostella); assay: Action on Diamond back moth (Plutella xylostella), cabbage leaf dip test; settings: foliar, third instar larvae on dipped cabbage leaves, 72 hours after treatment, read-out: mortality in comparison with untreated controls
Protocol: Example B6: Action on Diamond back moth (Plutella xylostella)
The active compound is dissolved at the desired concentration in a mixture of 1:1 (v/v) distilled water: acetone. Surfactant (Kinetic® HV) is added at a rate of 0.01% (v/v). The test solution is prepared at the day of use.
Leaves of cabbage were dipped in test solution and air-dried. Treated leaves were placed in petri dishes lined with moist filter paper and inoculated with ten third instar larvae. Mortality was recorded 72 hours after treatment. Feeding damages were also recorded using a scale of 0-100%.

[3] = tested on: Southern armyworm (Spodoptera eridania), second instar larvae; assay: Action on Southern armyworm (Spodoptera eridania), sprayed lima bean plants; settings: 96 h, 4 days after treatment, read-out: mortality in comparison with untreated controls
Protocol: Example B7: Action on Southern armyworm (Spodoptera eridania), second instar larvae
The active compounds were formulated by a Tecan liquid handler in 100% cyclohexanone as a 10,000 ppm solution supplied in tubes. The 10,000 ppm solution was serially diluted in 100% cyclohexanone to make interim solutions. These served as stock solutions for which final dilutions were made by the Tecan in 50% acetone:50% water (v/v) into 10 or 20 mL glass vials. A nonionic surfactant (Kinetic®) was included in the solution at a volume of 0.01% (v/v). The vials were then inserted into an automated electrostatic sprayer equipped with an atomizing nozzle for application to plants/insects.
Lima bean plants (variety Sieva) were grown 2 plants to a pot and selected for treatment at the 1st true leaf stage. Test solutions were sprayed onto the foliage by an automated electrostatic plant sprayer equipped with an atomizing spray nozzle. The plants were dried in the sprayer fume hood and then removed from the sprayer. Each pot was placed into perforated plastic bags with a zip closure. About 10 to 11 armyworm larvae were placed into the bag and the bags zipped closed. Test plants were maintained in a growth room at about 25°C and about 20-40% relative humidity for 4 days, avoiding direct exposure to fluorescent light (24 hour photoperiod) to prevent trapping of heat inside the bags. Mortality and reduced feeding were assessed 4 days after treatment, compared to untreated control plants.

[4] = tested on: Orchid thrips (Dichromothrips corbetti); assay: Action on Orchid thrips (Dichromothrips corbetti), floral-immersion technique; settings: adult thrips on dipped orchid petals, 72 hours after treatment, read-out: mortality in comparison with untreated controls
Protocol: Example B2: Action on Orchid thrips (Dichromothrips corbetti)
Dichromothrips corbetti adults used for bioassay were obtained from a colony maintained continuously under laboratory conditions. For testing purposes, the test compound is diluted in a 1:1 mixture of acetone:water (vol:vol), plus Kinetic® HV at a rate of 0.01% v/v.
Thrips potency of each compound was evaluated by using a floral-immersion technique. All petals of individual, intact orchid flowers were dipped into treatment solution and allowed to dryin Petri dishes. Treated petals were placed into individual re-sealable plastic along with about 20 adult thrips. All test arenas were held under continuous light and a temperature of about 28°C for duration of the assay. After 3 days, the numbers of live thrips were counted on each petal. The percent mortality was recorded 72 hours after treatment.

[5] = tested on: Boll weevil (Anthonomus grandis); assay: Action on Boll weevil (Anthonomus grandis), 96-well microtiter plate insect diet test; settings: 120 h, egg and larval mortality visually assessed after 5 days, read-out: mortality in comparison with untreated controls
Protocol: Example B3: Action on Boll weevil (Anthonomus grandis )
For evaluating control of boll weevil (Anthonomus grandis) the test unit consisted of 96-well-microtiter plates containing an insect diet and 5-10 A. grandis eggs.
The compounds were formulated using a solution containing 75% (v/v) water and 25% (v/v) DMSO. Different concentrations of formulated compounds were sprayed onto the insect diet at 5 µL, using a custom-built micro atomizer, at two replications.
After application, microtiter plates were incubated at about 25 + 1°C and about 75 + 5 % relative humidity for 5 days. Egg and larval mortality were then visually assessed.

[6] = tested on: Yellow fever mosquito (Aedes aegypti); assay: whole plant or invertebrate; settings: 48 h, larval mortality visually assessed after 2 days at 28 ± 1°C, read-out: mortality in comparison with untreated controls
Protocol: Example B1: Action on Yellow fever mosquito (Aedes aegypti)
For evaluating control of yellow fever mosquito (Aedes aegypti) the test unit consisted of 96-well-microtiter plates containing 200µL of tap water per well and 5-15 freshly hatched A. aegypti larvae.
The active compounds or mixtures were formulated using a solution containing 75% (v/v) water and 25% (v/v) DMSO. Different concentrations of formulated compounds or mixtures were sprayed onto the insect diet at 2.5µL, using a custom-built micro atomizer, at two replications.
For experimental mixtures in these tests identical volumes of both mixing partners at the desired concentrations respectively, were mixed together.
After application, microtiter plates were incubated at 28 ± 1°C, 80 ± 5 % relative humidity for 2 days. Larval mortality was then visually assessed.

[7] = tested on: Diamond back moth (Plutella xylostella); assay: Action on Diamond back moth (Plutella xylostella), 96-well microtiter plate insect diet test; settings: 120 h, read-out: mortality in comparison with untreated controls
Protocol: Example B8: Action on Diamond back moth (Plutella xylostella)
For evaluating control of diamond back moth (Plutella xylostella) the test unit consisted of 96-well-microtiter plates containing an insect diet and 15-25 P. xylostella eggs. The compounds or mixtures were formulated using a solution containing 75% water and 25% DMSO. Different concentrations of formulated compounds or mixtures were sprayed onto the insect diet at 5µl, using a custom-built micro atomizer, at two replications. For experimental mixtures in these tests identical volumes of both mixing partners at the desired concentrations respectively, were mixed together. After application, microtiter plates were incubated at 28 ± 1°C, 80 ± 5 % relative humidity for 5 days. Egg and larval mortality was then visually assessed.

| SMILES | mortality at 800 ppm [1] | mortality at 300 ppm [2] | mortality at 300 ppm [3] | mortality at 300 ppm [4] | mortality at 800 ppm [5] | mortality at 800 ppm [6] | mortality at 800 ppm [7] |
| --- | --- | --- | --- | --- | --- | --- | --- |
| Cc1ccc(C(C)C)c(NC(=S)N/N=C/c2ccc(-c3nn(C)c(N4Cc5cc(OC(F)(F)F)ccc5C4=O)c3C)cc2)c1 [C-1, 1-[(E)-[4-[1,4-dimethyl-5-[1-oxo-5-(trifluoromethoxy)isoindolin-2-yl]pyrazol-3-yl]phenyl]methyleneamino]-3-(2-isopropyl-5-methyl-phenyl)thiourea] | ≥ 75% | ≥ 75% | ≥ 75% | ≥ 75% | ≥ 75% | ≥ 50% |  |
| Cc1ccc(C(C)C)c(N/C(=N/N=C/c2ccc(-c3nn(C)c(N4Cc5cc(OC(F)(F)F)ccc5C4=O)c3C)cc2)SCOC(=O)C(C)C)c1 [C-3, [(Z)-N'-[(E)-[4-[1,4-dimethyl-5-[1-oxo-5-(trifluoromethoxy)isoindolin-2-yl]pyrazol-3-yl]phenyl]methyleneamino]-N-(2-isopropyl-5-methyl-phenyl)carbamimidoyl]sulfanylmethyl 2-methylpropanoate] | ≥ 75% |  | ≥ 75% | ≥ 75% | ≥ 75% | ≥ 50% | ≥ 75% |
| CCOC(=O)OCS/C(=N\N=C\c1ccc(-c2nn(C)c(N3Cc4cc(OC(F)(F)F)ccc4C3=O)c2C)cc1)Nc1cc(C)ccc1C(C)C [C-4, [(Z)-N'-[(E)-[4-[1,4-dimethyl-5-[1-oxo-5-(trifluoromethoxy)isoindolin-2-yl]pyrazol-3-yl]phenyl]methyleneamino]-N-(2-isopropyl-5-methyl-phenyl)carbamimidoyl]sulfanylmethyl ethyl carbonate] | ≥ 75% |  | ≥ 75% | ≥ 75% | ≥ 75% | ≥ 50% | ≥ 75% |
| Cc1ccc(C(C)C)c(NC(=S)N/N=C/c2ccc(-c3nn(C)c(N4CCc5cc(OC(F)(F)F)ccc5C4=O)c3C)cc2)c1 [C-7, 1-[(E)-[4-[1,4-dimethyl-5-[1-oxo-6-(trifluoromethoxy)-3,4-dihydroisoquinolin-2-yl]pyrazol-3-yl]phenyl]methyleneamino]-3-(2-isopropyl-5-methyl-phenyl)thiourea] | ≥ 75% |  | ≥ 75% | ≥ 75% | ≥ 75% | ≥ 50% | ≥ 75% |
| Cc1ccc(C(C)C)c(N2C(=O)CS/C2=N\N=C\c2ccc(-c3nn(C)c(N4CCc5cc(OC(F)(F)F)ccc5C4=O)c3C)cc2)c1 [C-8, (2Z)-2-[(E)-[4-[1,4-dimethyl-5-[1-oxo-6-(trifluoromethoxy)-3,4-dihydroisoquinolin-2-yl]pyrazol-3-yl]phenyl]methylenehydrazono]-3-(2-isopropyl-5-methyl-phenyl)thiazolidin-4-one] | ≥ 75% | ≥ 75% | ≥ 75% | ≥ 75% | ≥ 75% | ≥ 50% |  |
| Cc1ccc(C(C)C)c(N2C(=O)CS/C2=N\N=C\c2ccc(-c3nc(N4CCc5cc(OC(F)(F)F)ccc5C4=O)n(C)n3)cc2)c1 [C-9, (2Z)-3-(2-isopropyl-5-methyl-phenyl)-2-[(E)-[4-[1-methyl-5-[1-oxo-6-(trifluoromethoxy)-3,4-dihydroisoquinolin-2-yl]-1,2,4-triazol-3-yl]phenyl]methylenehydrazono] thiazolidin-4-one] | ≥ 75% |  | ≥ 75% | ≥ 75% | ≥ 75% | ≥ 50% | ≥ 75% |
| Cc1ccc(C(C)C)c(N2C(=O)CS/C2=N\C(=O)Nc2ccc(-c3nn(C)c(N4CCc5cc(OC(F)(F)F)ccc5C4=O)c3C)cc2)c1 [C-11, (3Z)-1-[4-[1,4-dimethyl-5-[1-oxo-6-(trifluoromethoxy)-3,4-dihydroisoquinolin-2-yl]pyrazol-3-yl]phenyl]-3-[3-(2-isopropyl-5-methyl-phenyl)-4-oxo-thiazolidin-2-ylidene]urea] | ≥ 75% | ≥ 75% | ≥ 75% | ≥ 75% | ≥ 75% | ≥ 50% |  |
| Cc1ccc(C(C)C)c(N2C(=O)CS/C2=N\C(=O)Nc2ccc(-c3nn(C)c(N4CCc5cc(OC(F)(F)F)ccc5C4=O)c3C)cc2Cl)c1 [C-12, (3Z)-1-[2-chloro-4-[1,4-dimethyl-5-[1-oxo-6-(trifluoromethoxy)-3,4-dihydroisoquinolin-2-yl]pyrazol-3-yl]phenyl]-3-[3-(2-isopropyl-5-methyl-phenyl)-4-oxo-thiazolidin-2-ylidene] urea] | ≥ 75% | ≥ 75% | ≥ 75% | ≥ 75% | ≥ 75% | ≥ 50% |  |
